Test results reported in patent US20250059174A1, “Pharmaceutical Compounds and Compositions as C-Kit Kinase Inhibitors” (Enanta Pharmaceuticals, Inc., priority 2023, published 2025).
Values belong to the compound of their own block, whether it stands above or below them.

Experiments:
[1] = tested on: M-07e cells; test: M-07e cellular assay (SCF-mediated cell proliferation); type: cell-based; conditions: Homo sapiens, 72 hours, CellTiter Glo
Procedure, shortened: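 CellTiter Glo luminescence after 72 h compound exposure in SCF (EC90)-stimulated M-07e cells expressing endogenous human c-KIT.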

[2] = target: Recombinant human c-KIT kinase (Homo sapiens (Human), UniProt P10721); test: c-KIT kinase chemiluminescence assay (ADP-Glo); type: biochemical; conditions: ATP 50 μM
Procedure, shortened: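 Recombinant human c-KIT preincubated 30 min at RT in 40 mM Tris pH 7.5, 20 mM MgCl2, 0.1 mg/mL BSA, 50 μM DTT, then reacted 2 h at RT with ATP and polyEY substrate. ADP-Glo luminescence readout; activity normalized to high/low controls, IC50 and Hill coefficient from inhibitor-versus-normalized-response fit.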

Recombinant human c-KIT kinase, sequence (P10721 26-976): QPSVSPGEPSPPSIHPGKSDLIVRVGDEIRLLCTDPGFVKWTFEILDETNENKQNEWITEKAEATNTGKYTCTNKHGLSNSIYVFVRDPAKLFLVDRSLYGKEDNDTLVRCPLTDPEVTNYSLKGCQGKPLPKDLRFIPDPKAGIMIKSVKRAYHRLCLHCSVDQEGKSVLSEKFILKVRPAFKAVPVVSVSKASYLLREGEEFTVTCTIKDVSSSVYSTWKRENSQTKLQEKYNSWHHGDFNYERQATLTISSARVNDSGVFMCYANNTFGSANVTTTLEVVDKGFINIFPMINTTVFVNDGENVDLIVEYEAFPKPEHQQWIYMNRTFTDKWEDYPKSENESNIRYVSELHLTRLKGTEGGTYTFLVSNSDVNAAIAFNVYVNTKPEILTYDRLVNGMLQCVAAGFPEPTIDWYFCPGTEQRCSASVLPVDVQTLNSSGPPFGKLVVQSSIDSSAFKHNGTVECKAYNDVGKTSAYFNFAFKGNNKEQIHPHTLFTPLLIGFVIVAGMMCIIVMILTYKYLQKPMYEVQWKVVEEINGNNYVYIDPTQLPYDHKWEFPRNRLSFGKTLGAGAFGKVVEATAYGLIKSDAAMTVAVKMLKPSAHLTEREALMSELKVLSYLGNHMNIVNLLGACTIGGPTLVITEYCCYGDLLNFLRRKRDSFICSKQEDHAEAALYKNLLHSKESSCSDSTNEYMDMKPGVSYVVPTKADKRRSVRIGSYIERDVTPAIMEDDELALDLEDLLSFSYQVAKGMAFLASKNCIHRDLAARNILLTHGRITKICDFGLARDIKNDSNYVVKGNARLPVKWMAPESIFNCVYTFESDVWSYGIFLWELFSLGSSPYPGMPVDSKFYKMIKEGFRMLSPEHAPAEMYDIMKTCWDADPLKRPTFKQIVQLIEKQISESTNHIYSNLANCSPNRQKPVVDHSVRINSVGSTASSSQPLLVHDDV

IC50 [2]: < 0.1 µM
Compound: Cc1cc(F)c(-c2noc([C@H]3C[C@@H]3F)n2)cc1NC(=O)c1cnn2ccc(N3CC4(C3)CC(O)(C(F)F)C4)cc12 [Example 281-18]
EC50 [1]: < 0.1 µM

IC50 [2]: 0.1 to 1 µM
Compound: CC(=O)N1CC(c2nc(-c3ccc(C)c(NC(=O)c4cnn5ccc(N6CC7(COC7)C6)cc45)c3)no2)C1 [Example 281-19]
EC50 [1]: > 1 µM

IC50 [2]: < 0.1 µM
Compound: Cc1ccc(-c2noc([C@H]3C[C@@H](OC(F)F)C3)n2)cc1NC(=O)c1cnn2ccc(N3CC4(C3)CC(O)(C(F)F)C4)cc12 [Example 281-20]
EC50 [1]: < 0.1 µM

IC50 [2]: < 0.1 µM
Compound: Cc1ccc(-c2noc([C@H]3C[C@@H](OC(F)(F)F)C3)n2)cc1NC(=O)c1cnn2ccc(N3CC4(C3)CC(O)(C(F)F)C4)cc12 [Example 281-21]
EC50 [1]: < 0.1 µM

IC50 [2]: 0.1 to 1 µM
Compound: O=C(Nc1cc(-c2noc([C@H]3C[C@@H]3F)n2)ccc1Cl)c1cnn2ccc(N3CC4(C3)CC(O)(C(F)F)C4)cc12 [Example 281-26]
EC50 [1]: < 0.1 µM

IC50 [2]: < 0.1 µM
Compound: O=C(Nc1cc(-c2noc([C@H]3C[C@@H](C(F)(F)F)C3)n2)ccc1Cl)c1cnn2ccc(N3CC4(C3)CC(O)(C(F)F)C4)cc12 [Example 281-27]
EC50 [1]: < 0.1 µM

IC50 [2]: < 0.1 µM
Compound: O=C(Nc1cc(-c2noc([C@H]3C[C@@H](OC(F)(F)F)C3)n2)ccc1Cl)c1cnn2ccc(N3CC4(C3)CC(O)(C(F)F)C4)cc12 [Example 281-28]
EC50 [1]: < 0.1 µM

IC50 [2]: 0.1 to 1 µM
Compound: COC(=O)N1CC(Cc2nc(-c3ccc(C)c(NC(=O)c4cnn5ccc(N6CC7(COC7)C6)cc45)c3)no2)C1 [Example 281-29]
EC50 [1]: 0.1 to 1 µM

IC50 [2]: < 0.1 µM
Compound: O=C(Nc1cc(-c2noc(C3CC(F)(F)C3)n2)ccc1Cl)c1cnn2ccc(N3CC4(C3)CC(O)(C(F)F)C4)cc12 [Example 281-30]
EC50 [1]: < 0.1 µM

IC50 [2]: < 0.1 µM
Compound: Cc1ccc(-c2noc([C@H]3C[C@](O)(C(F)(F)F)C3)n2)cc1NC(=O)c1cnn2ccc(N3CC4(COC4)C3)cc12 [Example 281-31]
EC50 [1]: < 0.1 µM

IC50 [2]: 0.1 to 1 µM
Compound: Cc1ccc(-c2noc(C3CN(C(=O)[C@H]4C[C@@H]4F)C3)n2)cc1NC(=O)c1cnn2ccc(N3CC4(COC4)C3)cc12 [Example 281-32]
EC50 [1]: 0.1 to 1 µM

IC50 [2]: 0.1 to 1 µM
Compound: Cc1ccc(-c2noc(C3CN(C(=O)[C@H]4C[C@@H]4F)C3)n2)cc1NC(=O)c1cnn2ccc(N3CC4(C3)CC(O)(C(F)F)C4)cc12 [Example 281-34]
EC50 [1]: 0.1 to 1 µM

IC50 [2]: < 0.1 µM
Compound: Cc1ccc(-c2noc(C3CN(C(=O)C4(F)CC4)C3)n2)cc1NC(=O)c1cnn2ccc(N3CC4(C3)CC(O)(C(F)F)C4)cc12 [Example 281-35]
EC50 [1]: < 0.1 µM

IC50 [2]: 0.1 to 1 µM
Compound: Cc1ncc(-c2noc([C@H]3C[C@](O)(C(F)F)C3)n2)cc1NC(=O)c1cnn2ccc(N3CC4(C3)CC(O)(C(F)F)C4)cc12 [Example 281-37]
EC50 [1]: 0.1 to 1 µM

IC50 [2]: < 0.1 µM
Compound: Cc1ccc(-c2noc(C3CN(CC(F)(F)F)C3)n2)cc1NC(=O)c1cnn2ccc(N3CC4(C3)CC(O)(C(F)F)C4)cc12 [Example 281-39]
EC50 [1]: < 0.1 µM

IC50 [2]: < 0.1 µM
Compound: Cc1cc(F)c(-c2noc([C@H]3C[C@@H]3F)n2)cc1NC(=O)c1cnn2ccc(N3CC4(COC4)C3)cc12 [Example 281-42]
EC50 [1]: < 0.1 µM

IC50 [2]: < 0.1 µM
Compound: COC(=O)N1CC(c2nc(-c3ccc(C)c(NC(=O)c4cnn5ccc(N6CC7(COC7)C6)cc45)c3)no2)C1 [Example 281-43]
EC50 [1]: < 0.1 µM

IC50 [2]: < 0.1 µM
Compound: COC(=O)N1CC(c2nc(-c3cc(NC(=O)c4cnn5ccc(N6CC7(COC7)C6)cc45)c(C)cc3F)no2)C1 [Example 281-48]
EC50 [1]: 0.1 to 1 µM

IC50 [2]: > 1 µM
Compound: Cc1ccc(-c2noc(C3CN(C(=O)C4CC(F)(F)C4)C3)n2)cc1NC(=O)c1cnn2ccc(N3CC4(COC4)C3)cc12 [Example 281-49]
EC50 [1]: > 1 µM

IC50 [2]: < 0.1 µM
Compound: COC(=O)N1CC(c2nc(-c3cc(NC(=O)c4cnn5ccc(N6CC7(C6)CC(O)(C(F)F)C7)cc45)c(C)cc3F)no2)C1 [Example 281-52]
EC50 [1]: < 0.1 µM

IC50 [2]: < 0.1 µM
Compound: COC(=O)N1CC(c2nc(-c3ccc(C)c(NC(=O)c4cnn5ccc(N6CC7(C6)CC(O)(C(F)F)C7)cc45)c3)no2)C1 [Example 281-53]
EC50 [1]: < 0.1 µM

IC50 [2]: 0.1 to 1 µM
Compound: CC(=O)N1CCC(c2nc(-c3cnc(C)c(NC(=O)c4cnn5ccc(N6CC7(C6)CC(O)(C(F)F)C7)cc45)c3)no2)C1 (centres unmarked) [Example 281-55]
EC50 [1]: > 1 µM

IC50 [2]: > 1 µM
Compound: Cc1ccc(-c2noc(C3CN(C(=O)NC4CC4)C3)n2)cc1NC(=O)c1cnn2ccc(N3CC4(COC4)C3)cc12 [Example 281-56]
EC50 [1]: > 1 µM

IC50 [2]: < 0.1 µM
Compound: Cc1cc(F)c(-c2noc([C@H]3C[C@@H](OC(F)(F)F)C3)n2)cc1NC(=O)c1cnn2ccc(N3CC4(COC4)C3)cc12 [Example 281-57]
EC50 [1]: 0.1 to 1 µM

IC50 [2]: < 0.1 µM
Compound: Cc1cc(F)c(-c2noc([C@H]3C[C@@H]3C(F)F)n2)cc1NC(=O)c1cnn2ccc(N3CC4(COC4)C3)cc12 [Example 281-59]
EC50 [1]: 0.1 to 1 µM

IC50 [2]: 0.1 to 1 µM
Compound: Cc1ncc(-c2noc([C@H]3C[C@@H]3F)n2)cc1NC(=O)c1cnn2ccc(N3CC4(C3)CC(O)(C(F)F)C4)cc12 [Example 281-63]
EC50 [1]: < 0.1 µM

More lines, now with the values behind:

Compound: Cc1ccc(-c2noc([C@H]3C[C@@H](OC(F)F)C3)n2)cc1NC(=O)c1cnn2ccc(N3CC4(C3)CC(O)(C(F)(F)F)C4)cc12 [Example 281-22]
EC50 [1]: < 0.1 µM
IC50 [2]: < 0.1 µM

Compound: Cc1ccc(-c2noc([C@H]3C[C@@H](OC(F)(F)F)C3)n2)cc1NC(=O)c1cnn2ccc(N3CC4(C3)CC(O)(C(F)(F)F)C4)cc12 [Example 281-23]
EC50 [1]: < 0.1 µM
IC50 [2]: < 0.1 µM

Compound: Cc1cc(F)c(-c2noc([C@H]3C[C@@H]3F)n2)cc1NC(=O)c1cnn2ccc(N3CC4(C3)CN(S(C)(=O)=O)C4)cc12 [Example 281-24]
EC50 [1]: 0.1 to 1 µM
IC50 [2]: < 0.1 µM

Compound: Cc1ccc(-c2noc([C@H]3C[C@@H](C(F)(F)F)C3)n2)cc1NC(=O)c1cnn2ccc(N3CC4(COC4)C3)cc12 [Example 281-25]
EC50 [1]: < 0.1 µM
IC50 [2]: < 0.1 µM

Compound: Cc1ccc(-c2noc(C3CN(C(=O)C4(F)CC4)C3)n2)cc1NC(=O)c1cnn2ccc(N3CC4(COC4)C3)cc12 [Example 281-33]
EC50 [1]: 0.1 to 1 µM
IC50 [2]: 0.1 to 1 µM

Compound: Cc1ncc(-c2noc([C@H]3C[C@@](C)(O)C3)n2)cc1NC(=O)c1cnn2ccc(N3CC4(C3)CC(O)(C(F)F)C4)cc12 [Example 281-36]
EC50 [1]: 0.1 to 1 µM
IC50 [2]: < 0.1 µM

Compound: Cc1ncc(-c2noc([C@H]3C[C@](O)(C(F)(F)F)C3)n2)cc1NC(=O)c1cnn2ccc(N3CC4(C3)CC(O)(C(F)F)C4)cc12 [Example 281-38]
EC50 [1]: < 0.1 µM
IC50 [2]: 0.1 to 1 µM

Compound: Cc1ncc(-c2noc([C@H]3C[C@@H](OC(F)(F)F)C3)n2)cc1NC(=O)c1cnn2ccc(N3CC4(C3)CC(O)(C(F)F)C4)cc12 [Example 281-45]
EC50 [1]: < 0.1 µM
IC50 [2]: < 0.1 µM

Compound: Cc1ccc(-c2noc(C3CN(C(=O)C4CC4)C3)n2)cc1NC(=O)c1cnn2ccc(N3CC4(COC4)C3)cc12 [Example 281-46]
EC50 [1]: 0.1 to 1 µM
IC50 [2]: 0.1 to 1 µM

Compound: Cc1ccc(-c2noc(C3CN(C(=O)C(F)(F)F)C3)n2)cc1NC(=O)c1cnn2ccc(N3CC4(COC4)C3)cc12 [Example 281-47]
EC50 [1]: > 1 µM
IC50 [2]: 0.1 to 1 µM

Compound: Cc1ccc(-c2noc(C3CN(C(=O)N(C)C4CC4)C3)n2)cc1NC(=O)c1cnn2ccc(N3CC4(COC4)C3)cc12 [Example 281-50]
EC50 [1]: 0.1 to 1 µM
IC50 [2]: 0.1 to 1 µM

Compound: Cc1ccc(-c2noc(C3CN(C(=O)N(C)C)C3)n2)cc1NC(=O)c1cnn2ccc(N3CC4(COC4)C3)cc12 [Example 281-51]
EC50 [1]: > 1 µM
IC50 [2]: > 1 µM

Compound: Cc1c(F)cc(-c2noc([C@H]3C[C@@H]3F)n2)cc1NC(=O)c1cnn2ccc(N3CC4(COC4)C3)cc12 [Example 281-54]
EC50 [1]: < 0.1 µM
IC50 [2]: < 0.1 µM

Compound: Cc1ncc(-c2noc(C3C[C@@H]3C(F)F)n2)cc1NC(=O)c1cnn2ccc(N3CC4(COC4)C3)cc12 (some centres unmarked) [Example 281-60]
EC50 [1]: 0.1 to 1 µM
IC50 [2]: 0.1 to 1 µM

Compound: Cc1ccc(-c2noc(C3CN(C(=O)N4CC(F)(F)C4)C3)n2)cc1NC(=O)c1cnn2ccc(N3CC4(COC4)C3)cc12 [Example 281-61]
EC50 [1]: 0.1 to 1 µM
IC50 [2]: > 1 µM

Compound: Cc1ncc(-c2noc([C@H]3C[C@@H](C(F)(F)F)C3)n2)cc1NC(=O)c1cnn2ccc(N3CC4(C3)CC(O)(C(F)F)C4)cc12 [Example 281-62]
EC50 [1]: < 0.1 µM
IC50 [2]: < 0.1 µM

Compound: Cc1ncc(-c2noc([C@H]3C[C@@H]3C(F)F)n2)cc1NC(=O)c1cnn2ccc(N3CC4(C3)CC(O)(C(F)F)C4)cc12 [Example 281-64]
EC50 [1]: < 0.1 µM
IC50 [2]: < 0.1 µM
